Reference: patent US20070184481A1, “Assay For Transcriptionally Active Methylated Promoters” (UNIVERSITY OF SOUTH FLORIDA, priority 2005, published 2007)

Test system: HLA-DRA mRNA in RFX-negative cell lines
Conditions: two RFX-negative suspension B-cell lines, 5 uM Azacytidine for 72 hours, RT-PCR 40 cycles, agarose gel detection
Method: Suspension B-cell lines were seeded at 10^5 cells per ml in 20 ml volume of media. […] Total RNA was prepared as described, and 5 ug of RNA were used in a standard reverse transcriptase, polymerase chain reaction (RT-PCR) for HLA-DRA mRNA and for γ-actin mRNA. PCR was performed for 40 cycles and the PCR products detected by 2.2% agarose gel electrophoresis.

For Nc1ncn([C@@H]2O[C@H](CO)[C@@H](O)[C@H]2O)c(=O)n1 [AzaC, Azacytidine], the “HLA-DRA mRNA production compared to untreated cells” value was “increase in HLA-DRA mRNA production”.
